{
  "source": "patent US11827665B2",
  "about": "“Process for the manufacture of (2S,3S,4S,5R,6S)-3,4,5-trihydroxy-6-(((4AR,10AR)-7-hydroxy-1-propyl-1,2,3,4,4A,5,10,10A-octahydrobenzo[g]quinolin-6-yl)oxy)tetrahydro-2H-pyran-2-carboxylic acid” (H. Lundbeck A/S, priority 2019, dated 2023)",
  "key": {"human 5-HT2B receptor": {"molecular_target": "T1, human 5-HT2B receptor (Homo sapiens, UniProt P41595)", "T1 construct": "host or cells: CHO", "T1 sequence (P41595 whole entry)": "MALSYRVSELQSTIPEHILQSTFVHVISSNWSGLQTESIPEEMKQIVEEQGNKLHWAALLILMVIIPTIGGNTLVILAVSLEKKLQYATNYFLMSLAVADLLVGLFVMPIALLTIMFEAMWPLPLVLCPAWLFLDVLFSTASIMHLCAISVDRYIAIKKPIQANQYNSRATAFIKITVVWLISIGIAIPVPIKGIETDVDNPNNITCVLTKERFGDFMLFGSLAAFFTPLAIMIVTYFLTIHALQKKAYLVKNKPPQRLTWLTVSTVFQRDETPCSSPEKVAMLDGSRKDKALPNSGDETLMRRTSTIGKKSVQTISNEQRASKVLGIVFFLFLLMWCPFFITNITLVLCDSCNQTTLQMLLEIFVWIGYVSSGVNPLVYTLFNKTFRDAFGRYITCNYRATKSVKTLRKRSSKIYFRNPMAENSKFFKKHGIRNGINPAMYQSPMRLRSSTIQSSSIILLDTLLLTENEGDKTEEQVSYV", "assay": "5-HT2B radioligand binding assay", "conditions": "[125I](±)DOI, CHO cell membranes, read-out: 5-HT2B binding affinity (% inhibition of control, specific binding)", "protocol": "Membrane homogenates prepared from CHO cells expressing the human 5HT2B receptor were incubated for 60 minutes at room temperature with 0.2 nM [1251](±)DOI (1-(4-iodo-2, 5-dimethoxyphenyl)propan-2-amine) in the absence or presence of the test compound in a buffer containing 50 mM Tris-HCl (pH 7.4), 5 mM MgCl2, 10 μM pargyline and 0.1% ascorbic acid. Nonspecific binding is determined in the presence of 1 μM (±)DOI. Following incubation, the samples were filtered rapidly under vacuum through glass fiber filters (GF/B, Packard) presoaked with 0.3% polyethyleneimine (PEI) and rinsed several times with ice-cold 50 mM Tris-HCl using a 96-sample cell harvester (Unifilter, Packard). The filters were dried and counted for radioactivity in a scintillation counter (Topcount, Packard) using a scintillation cocktail (Microscint 0, Packard). The results are expressed as a percent inhibition of the control radioligand specific binding. The standard reference compound was (±)DOI, which was tested in each experiment at several concentrations to obtain a competition curve from which its IC50 is calculated."}, "[1]": {"assay": "In vivo conversion after oral dosing in minipigs"}, "rat locomotor activity": {"system": "rat locomotor activity", "assay": "Rat locomotor activity (hyperactivity) assay, open field, with PK/PD", "type": "in vivo, male CD rats", "protocol": "Animals were dosed at t=60 minutes after a 60-minutes habituation period in test chambers, and activity was monitored for 350 minutes thereafter.\nIn total, 206 male CD rats (Charles River, Germany) weighing 200-250 grams (165-190 grams upon arrival) were used in the study. Animals were housed at a standard temperature (22±1° C.) and in a light-controlled environment (lights on from 7 am to […]) with ad libitum access to food and water. The experiment described below was performed in accordance with the standard operating procedures of Charles River Discovery Research Services Finland Ltd. and in accordance with the national Animal Experiment Board of Finland (Eläinkoelautakunta, ELLA) authority on animal testing.\nThe test device is a square Plexiglass-arena (measuring 40×40×40 cm), in which the movement paths of the rats are recorded by an activity monitor (Med. Associates Inc.). Before the test period is initiated, rats are habituated to their test cage for 60 minutes. Upon completion of habituation, animals were treated with either compound or vehicle and placed back into the open field apparatus. The main test parameter measured is ambulatory distance (recorded in 5-minute segments). Overall time of measurement after receiving initial treatment was 360 minutes. Total follow up period in the study was 420 min, including 60 min of habituation."}},
  "data": [
    {"smiles": "CCCN1CCC[C@@H]2Cc3c(ccc(O)c3O[C@@H]3O[C@H](C(=O)O)[C@@H](O)[C@H](O)[C@H]3O)C[C@H]21", "note": "[compound (Id), (2S,3S,4S,5R,6S)-3,4,5-trihydroxy-6-(((4aR,10aR)-7-hydroxy-1-propyl-1,2,3,4,4a,5,10,10a-octahydrobenzo[g]quinolin-6-yl)oxy)tetrahydro-2H-pyran-2-carboxylic acid]", "values": [
      {"measurement": "inhibition at 10 µM", "setting": "human 5-HT2B receptor", "value": -25, "unit": "%"},
      {"measurement": "In vivo conversion of (Id) to compound (I)", "setting": "[1]", "value": "observed"},
      {"measurement": "Relationship between plasma concentration and hyperactivity", "setting": "rat locomotor activity; (Id) 100 μg/kg p.o. (plasma compound (I)), apomorphine 3 mg/kg s.c. (plasma apomorphine)", "value": "correlate with the plasma concentrations of compound (I)"},
      {"measurement": "Locomotor activity: start of effect post-administration", "setting": "rat locomotor activity; (Id) 10 to 300 μg/kg p.o., apomorphine 3 mg/kg s.c., pramipexole 0.3 mg/kg s.c.", "value": "~2", "unit": "h"},
      {"measurement": "Locomotor activity: end of effect post administration", "setting": "rat locomotor activity; (Id) 10 to 300 μg/kg p.o., apomorphine 3 mg/kg s.c., recording until 415-minute time point", "value": "lasting until the end of recording"},
      {"measurement": "Total distance travelled (FIG. 3)", "setting": "rat locomotor activity; versus vehicle, (Id) p.o., apomorphine 3 mg/kg s.c., pramipexole 0.3 mg/kg s.c.", "value": "significantly increased activity"}
    ]}
  ]
}
